Source: patent EP0108452A1, “Treatment of gastric inflammatory disease with cytoprotective prostaglandins and histamine-2 blocking anti-secretory agents” (THE PROCTER & GAMBLE COMPANY, priority 1982, dated 1984)

Test system: Male Sprague-Dawley rats
Test: Cysteamine duodenal ulcer model (cysteamine gastric ulcer model)
Assay type: in vivo
Details: PG-V 5 mg/kg; for % of Cntrl.: damage grading score relative to veh. cntrl.; for % of Cntrl. / % of Redc'n.: oral x3; for Damage Grading Score: oral, x3 at 0, 4 and 8 hours after cysteamine 500 mg/kg s.c., lower score = greater protection; for % of Redc'n.: reduction of damage grading score vs veh. cntrl.
Experimental: Male Sprague-Dawley rats weighing between 180 and 230 g are fasted for 24 hours during which time they are given ad libitum access to tap water. At the end of the 24 hour fast period, 500 mg/kg of cysteamine is administered subcutaneously. At the same time, the drug or control treatment is begun. The drug or control treatment consists of administering the drug or vehicle/control at 24 hours, 28 hours, and 32 hours after the fast has begun. That is, the drug, or vehicle/control treatment is administered at 0, 4 and 8 hours after the cysteamine. 48 hours after the fasting has begun, 24 hours after the administration of cysteamine, the rats are anesthetized and sacrificed. After sacrifice, the abdominal cavity is opened, and the stomach and approximately 2 inches of duodenum are excised and removed from the rat. They are placed on a 4" x 4" labelled index card. Care must be taken not to disturb the duodenum as this could affect the grading. The stomach and duodenum are cut open along the greater curvature and longitudinally along the anti-mesenteric side, respectively. The duodenum is carefully spread out without altering the orientation of the lesions and the thickness of the mucosa. They are viewed through a stereo microscope at approximately 7x magnification for gross examination of the stomach, pylorus and duodenal surface. For each duodenum, the amount of erythema, the amount of edema, a total lesion area and the severity of the lesions are evaluated according to the grading scale in Table 1. This is also repeated for the stomach. This information is recorded. The lower the score, the greater the protection. The lowest score which an agent can achieve in this model is the maximal intrinsic activity for this agent in this model. The smallest dosage of this agent which achieves this lowest score is the lowest dosage or level of administration which yields maximal intrinsic activity for this agent. [table] In Examples I-VIII, all were conducted in accordance with the cysteamine gastric ulcer model described above. The vehicle was 0.75% polyoxyethylene (20) sorbitan mono-oleate (Tween 80). All dosages were at a rate of 2.5 ml/kg. The treatment compositions were orally dosed at a volume of 2.5 mllkg, in accordance with the model, at 24, 28 and 32 hours after the beginning of the fast, or 0, 4 and 8 hours after the subcutaneous administration of cysteamine. In preparing the prostaglandin + […] compositions, the selected amount of prostaglandin and selected amount of cimetidine were added to a volume which was equivalent to 2.5 ml/kg for each animal. This was then given to the animal at 24, 28 and 32 hours respectively, after the beginning of the fast. The damage grading score was in accordance with the table provided in the cysteamine gastric ulcer model.

[1] = Example I, Cimetidine 25 mg/kg, veh. cntrl. 9.0 ± 2.2
[2] = Example II, Cimetidine 25 mg/kg
[3] = Example II, Cimetidine 25 mg/kg, veh. cntrl. 15.5 ± 4.5
[4] = Example III, Cimetidine 50 mg/kg
[5] = Example III, Cimetidine 50 mg/kg, veh. cntrl. 18.3 ± 3.7

| Structure (SMILES) | % of Cntrl. (Example I, Cimetidine 25 mg/kg) [%] | Damage Grading Score [1] | % of Redc'n. (Example I, Cimetidine 25 mg/kg) [%] | % of Cntrl. [2] [%] | Damage Grading Score [3] | % of Redc'n. [2] [%] | % of Cntrl. [4] [%] | Damage Grading Score [5] | % of Redc'n. [4] [%] |
| --- | --- | --- | --- | --- | --- | --- | --- | --- | --- |
| CN/C(=N/CCSCc1nc[nH]c1C)NC#N [Cimetidine] | 133 | 12.0 ± 2.0 | -33 | 159 | 24.6 ± 1.3 | -59 | 61 | 11.1 ± 3.0 | 39 |
| CCCCCC(=O)C#C[C@H]1CCC(=O)[C@@H]1OCCCCCC(=O)O [PG-V, 9,15 dioxo-7-oxa-prost-13,14-ynoic acid] | 140 | 12.6 ± 2.6 | -40 | 106 | 16.4 ± 3.3 | -6 | 117 | 21.5 ± 4.6 | -17 |
